{
  "source": "patent US4201725A",
  "about": "“Secondary amines” (priority 1974, dated 1980)",
  "key": {"[1]": {"tested_on": "cholinergic effects of tremorine", "test": "Anti-tremorine test in vivo", "set-up": "species or system mice (male, OF1 strain)", "procedure": "When injected into mice, tremorine produces peripheral effects i.e. weeping, sweating, salivation and diarrhoea and central effects i.e. tremor and akinesia. Such effects are due to an increase in the amount of intracerebral acetylcholine and serotonine.\n[…] Thirty minutes later a dose of 10 mg/kg of tremorine was injected by intraperitoneal route and, at different times after this injection, note was taken of the cholinergic effects on each animal in accordance with the following scale:"}, "electrocardiogram": {"tested_on": "electrocardiogram", "test": "Effect on the electrocardiogram", "format": "in vivo", "conditions": "amantadine: 5 mg/kg injected, dog"}, "[2]": {"tested_on": "arterial pressure and nictitating membrane (norepinephrine)", "test": "Influence on peripheral noradrenergic phenomena (norepinephrine, anaesthetized cat)", "conditions": "cat, i.v."}, "[3]": {"conditions": "SPERBER et al., J. Amer. Chem. Soc., 71, 3352 (1949); cited from earlier work"}, "in vivo": {"test": "in vivo", "conditions": "mouse, po"}, "[4]": {"conditions": "SPERBER et al., J. Amer. Chem. Soc., 71, 3352 (1949); cited from earlier work", "remark": "listed apart in the source"}, "[5]": {"tested_on": "reserpine-induced catatonia", "test": "Inhibition of reserpine-induced catatonia (preventive, oral compound 30 min before reserpine)", "format": "in vivo, rat (male, OFA strain)", "conditions": "for index of reserpine-induced catatonia (numerator of ratio): 0.031 m mol/kg oral, hydrochloride form", "procedure": "After sufficient doses of reserpine have been administered to the rat, a series of symptoms occur, more particularly ptosis, catatonia and a drop in central temperature. These symptoms are caused by the depletion of the intragranular reserve pool of biogenetic amines at the synaptic terminals.\nAn oral dose of the compound to be studied in aqueous solution was administered to batches of 10 male rats of the OFA strain weighing about 150 to 200 g. Thirty minutes later a dose of 5 mg/kg of reserpine was given by intraperitoneal route. Three hours after the injection of reserpine, the animals were suspended by the four paws to a horizontally stretched wire fixed at 15 cm from the ground. The catatonia animals were those which maintained the position so given for at least 30 seconds. […] The maximum score was therefore 10 per batch. An identical trial was undertaken with control animals which received reserpine but none of the compounds being studied."}, "[6]": {"tested_on": "neuroleptic-induced catatonia", "test": "Inhibition of neuroleptic (prochlorperazine)-induced catatonia (preventive)", "format": "in vivo, rat (male, OFA strain)", "procedure": "The blocking of dopaminergic receptors by neuroleptics in the extra-pyramidal system induces catatonia in the rat. Catatonia is differentiated from sedative properties by means of the test used hereabove for reserpine-induced catatonia. The same system of scoring was also employed in the present case.\nAn oral dose of the compound to be studied in aqueous solution was administered to batches of 10 male rats of the OFA strain weighing about 150 to 200 g.\nThree hours after the injection of this latter compound, catatonia was measured. An identical trial was also carried out with control animals which received prochlorperazine but none of the compounds under study.\nThe scoring system used was that given hereabove for Table I."}, "monoamine oxidase": {"tested_on": "monoamine oxidase", "test": "Inhibitory effect on monoamine oxidase"}, "Tremor-inducing action": {"test": "Tremor-inducing action", "conditions": "0.031 m mol/kg oral, 30 min, hydrochloride form; for number of animals presenting tremors (denominator of ratio): batches of 10 rats"}},
  "data": [
    {"compound": "NC12CC3CC(CC(C3)C1)C2", "note": "[Amantadine, 1-amino-adamantane, reference compound]", "values": [
      {"measurement": "antitremorine properties (in words)", "setting": "[1]; 5 mg/kg Compound 1, 40 mg/kg amantadine", "result": "devoid of antitremorine properties"},
      {"measurement": "central cholinergic effects (normal and provoked tremor)", "setting": "[1]; 40 mg/kg oral, identical to the peripheral score of 4", "result": "Identical results"},
      {"measurement": "effect on the electrocardiogram (in words)", "setting": "electrocardiogram", "result": "provokes cardiac arrhythmia due to ventricular extrasystoles"},
      {"measurement": "effect on the nictitating membrane (in words)", "setting": "[2]", "result": "stimulates the contractile reactions of the nictitating membrane but does not potentiate the effects of the electric stimulation"},
      {"measurement": "potentiation of norepinephrine / peripheral adrenergic effects (in words)", "setting": "[2]", "result": "potentiates exogenous norepinephrine from 1 mg/kg"},
      {"measurement": "potentiation of norepinephrine / peripheral adrenergic effects (in words)", "setting": "[2]; listed as amantadine", "result": "potentiates the peripheral adrenergic effects"}
    ]},
    {"compound": "CCCCC(N)(CCCC)CCCC", "note": "[Compound 12, 1,1-Di-n-butyl-n-pentylamine]", "values": [
      {"measurement": "spasmolytic activity (in words)", "setting": "[3]", "result": "less spasmolytic"},
      {"measurement": "selectivity ratio", "setting": "in vivo", "result": 25},
      {"measurement": "toxicity (in words)", "setting": "[4]", "result": "more toxic than the corresponding trialkylethylamines"}
    ]},
    {"compound": "CCCC(CCC)(CCC)NC", "note": "[Compound 27, N-Methyl-1,1-di-n-propyl-n-butylamine]", "values": [
      {"measurement": "Inhibition of reserpine-induced catatonia", "setting": "[5]; 6 mg/kg oral", "result": "4 (represents 100% inhibition of catatonia in comparison with the controls)"},
      {"measurement": "index of reserpine-induced catatonia (numerator of ratio)", "setting": "[5]", "result": "4 (represents 100% inhibition of catatonia in comparison with the controls)"},
      {"measurement": "Inhibition of the neuroleptic-induced catatonia", "setting": "[6]; 6 mg/kg oral", "result": "3 (represents 70 to 80% inhibition of catatonia in comparison with the controls)"},
      {"measurement": "inhibitory effects on the monoamine oxidase (in words)", "setting": "monoamine oxidase", "result": "practically devoid of inhibitory effects"},
      {"measurement": "selectivity ratio", "setting": "in vivo", "result": 16.5},
      {"measurement": "number of animals presenting tremors (denominator of ratio)", "setting": "Tremor-inducing action", "result": 4},
      {"measurement": "ratio of index of reserpine-induced catatonia inhibition to number of animals presenting tremors", "setting": "Tremor-inducing action", "result": 1}
    ]},
    {"compound": "CCCC(CCC)(NC)C(C)C", "note": "[Compound 30, N-Methyl-1-n-propyl-1-isopropyl-n-butylamine]", "values": [
      {"measurement": "Inhibition of reserpine-induced catatonia", "setting": "[5]; 6 mg/kg oral", "result": "4 (represents 100% inhibition of catatonia in comparison with the controls)"},
      {"measurement": "index of reserpine-induced catatonia (numerator of ratio)", "setting": "[5]", "result": "4 (represents 100% inhibition of catatonia in comparison with the controls)"},
      {"measurement": "Inhibition of the neuroleptic-induced catatonia", "setting": "[6]; 6 mg/kg oral", "result": "3 (represents 70 to 80% inhibition of catatonia in comparison with the controls)"},
      {"measurement": "selectivity ratio", "setting": "in vivo", "result": "> 25"},
      {"measurement": "number of animals presenting tremors (denominator of ratio)", "setting": "Tremor-inducing action", "result": 3},
      {"measurement": "ratio of index of reserpine-induced catatonia inhibition to number of animals presenting tremors", "setting": "Tremor-inducing action", "result": 1.33}
    ]},
    {"compound": "C=CCC(CCC)(CCC)NC", "note": "[Compound 32, N-Methyl-1-n-propyl-1-allyl-n-butylamine]", "values": [
      {"measurement": "Inhibition of reserpine-induced catatonia", "setting": "[5]; 5 mg/kg oral", "result": "2 (represents 50% inhibition of catatonia in comparison with the controls)"},
      {"measurement": "index of reserpine-induced catatonia (numerator of ratio)", "setting": "[5]", "result": "3 (represents 70 to 80% inhibition of catatonia in comparison with the controls)"},
      {"measurement": "Inhibition of the neuroleptic-induced catatonia", "setting": "[6]; 5 mg/kg oral", "result": "2 (represents 50% inhibition of catatonia in comparison with the controls)"},
      {"measurement": "number of animals presenting tremors (denominator of ratio)", "setting": "Tremor-inducing action", "result": 0},
      {"measurement": "ratio of index of reserpine-induced catatonia inhibition to number of animals presenting tremors", "setting": "Tremor-inducing action", "result": "3/0"}
    ]},
    {"compound": "C#CCNC(CCC)(CCC)CCC", "note": "[Compound 36, N-Propargyl-1,1-di-n-propyl-n-butylamine]", "values": [
      {"measurement": "Inhibition of reserpine-induced catatonia", "setting": "[5]; 6 mg/kg oral", "result": "1 (represents 20 to 30% inhibition of catatonia in comparison with the controls)"},
      {"measurement": "index of reserpine-induced catatonia (numerator of ratio)", "setting": "[5]", "result": "3 (represents 70 to 80% inhibition of catatonia in comparison with the controls)"},
      {"measurement": "Inhibition of the neuroleptic-induced catatonia", "setting": "[6]; 6 mg/kg oral", "result": "4 (represents 100% inhibition of catatonia in comparison with the controls)"},
      {"measurement": "selectivity ratio", "setting": "in vivo", "result": "> 25"},
      {"measurement": "number of animals presenting tremors (denominator of ratio)", "setting": "Tremor-inducing action", "result": 5},
      {"measurement": "ratio of index of reserpine-induced catatonia inhibition to number of animals presenting tremors", "setting": "Tremor-inducing action", "result": 0.60}
    ]}
  ]
}
